Experimental data: US20250074906A1, “AZAINDOLE DERIVATIVE THAT INHIBITS H-PGDS” (SATO PHARMACEUTICAL CO., LTD., priority 2021, published 2025)

Target: T1, Recombinant human H-PGDS (Homo sapiens, UniProt O60760)
T1 construct: made in house; host or cells: E. coli
Test: H-PGDS inhibitory activity (prostaglandin D2 production measured by LC-MS/MS)
Format: biochemical
Conditions: recombinant human H-PGDS 1.0 nM expressed in E. coli; prostaglandin H2 25 μM; 15 min preincubation and 1 min reaction on ice
Procedure: The H-PGDS inhibitory activity of each Example compound was measured according to the method described in WO 2007/041634.
Recombinant human H-PGDS (final concentration: 1.0 nM) expressed in E. coli was mixed in an assay buffer containing 20 mM Tris-HCl (pH 8.0), 2 mM magnesium chloride, 2 mM reduced glutathione, and 0.5 mg/mL γ-globulin, and 150 μL of the mixture was dispensed into an 8-strip PCR tube (BM Equipment Co., Ltd). Test compounds (Example compounds) (16.5 μL) at various concentrations dissolved in DMSO were added and the mixture was preincubated for 15 minutes on ice.
Prostaglandin H2 (final concentration: 25 μM) (Cayman Chemical) was dispensed into another 8-strip PCR tube, and the solvent was dried and solidified using a vacuum concentrator (Thermo Fisher Scientific). To the dried and solidified prostaglandin H2 was added 50 μL of the assay buffer containing H-PGDS and each test compound after the preincubation, and the mixture was reacted on ice for 1 minute. 40 μL of this mixture was added to 40 μL of a stop solution (50 mM aqueous citric acid solution containing iron chloride at a final concentration of 4 mg/mL) to stop the reaction. Then, the reaction solution was deproteinized, added to a 96 square deep well plate (SHONANMARUHACHI STEC Co., Ltd.), and the prostaglandin D2 concentration in the reaction solution was measured by LC-MS/MS. ACQUITY (registered trademark) TQD (Waters) was used as a measuring instrument.
Prostaglandin D2 production activity (%) in the group with each test compound when a value obtained by subtracting the amount of production of prostaglandin D2 in the group without enzyme, which is non-specific production of prostaglandin D2, from the amount of production of prostaglandin D2 in the group without test compound (DMSO-addition group) in each 8-strip PCR tube is 100% was calculated. From the calculated activity value, the test compound concentration that inhibits prostaglandin D2 production by 50% (IC50) was determined.

T1 sequence (O60760 whole entry): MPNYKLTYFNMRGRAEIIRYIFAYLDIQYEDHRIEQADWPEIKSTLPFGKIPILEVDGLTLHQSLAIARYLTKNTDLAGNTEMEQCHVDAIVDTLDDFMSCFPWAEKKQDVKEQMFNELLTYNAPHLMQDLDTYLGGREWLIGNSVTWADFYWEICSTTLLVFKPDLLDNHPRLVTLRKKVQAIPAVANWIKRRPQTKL

Row | IC50 | SMILES
1 | 1.3 nM | Cc1cnc(-c2ccc(C(=O)N[C@H]3CC[C@](C)(O)CC3)cc2)c2cc[nH]c12 [Example 2, N-(trans-4-hydroxy-4-methylcyclohexyl)-4-(7-methyl-1H-pyrrolo[3,2-c]pyridin-4-yl)benzamide]
2 | 0.91 nM | O=C(NC12CCC(O)(CC1)C2)c1ccc(-c2ncc(Cl)c3[nH]ccc23)cc1 [Example 32, 4-(7-chloro-1H-pyrrolo[3,2-c]pyridin-4-yl)-N-(4-hydroxybicyclo[2.2.1]heptan-1-yl)benzamide]
3 | 2.1 nM | CC(C)(O)CO[C@H]1CC[C@H](NC(=O)c2ccc(-c3ncc(F)c4[nH]ccc34)cc2)CC1 [Example 22, 4-(7-fluoro-1H-pyrrolo[3,2-c]pyridin-4-yl)-N-[trans-4-(2-hydroxy-2-methylpropoxy)cyclohexyl]benzamide]
4 | 5.3 nM | CC(C)(O)[C@H]1CC[C@H](NC(=O)c2ccc(-c3ncc(F)c4[nH]ncc34)cc2)CC1 [Example 46, 4-(7-fluoro-1H-pyrazolo[4,3-c]pyridin-4-yl)-N-[trans-4-(2-hydroxypropan-2-yl)cyclohexyl]benzamide]
5 | 2.4 nM | CC(C)(O)[C@H]1CC[C@H](NC(=O)c2ccc(-c3nccc4[nH]ncc34)cc2)CC1 [Example 43, N-[trans-4-(2-hydroxypropan-2-yl)cyclohexyl]-4-(1H-pyrazolo[4,3-c]pyridin-4-yl)benzamide]

More lines, now with the values behind:

Row | SMILES | IC50
6 | O=C(N[C@H]1CC[C@@H](O)CC1)c1ccc(-c2ncc(F)c3[nH]ccc23)c(F)c1 [Example 42, 3-fluoro-4-(7-fluoro-1H-pyrrolo[3,2-c]pyridin-4-yl)-N-(cis-4-hydroxycyclohexyl)benzamide] | 0.92 nM
7 | N#CC12CCC(NC(=O)c3ccc(-c4nccc5[nH]ccc45)c(F)c3)(CC1)CC2 [Example 7, N-(4-cyanobicyclo[2.2.2]octan-1-yl)-3-fluoro-4-(1H-pyrrolo[3,2-c]pyridin-4-yl)benzamide] | 1.3 nM
8 | C[C@]1(O)CC[C@H](NC(=O)c2ccc(-c3nccc4[nH]ccc34)c(F)c2)CC1 [Example 5, 3-fluoro-N-(trans-4-hydroxy-4-methylcyclohexyl)-4-(1H-pyrrolo[3,2-c]pyridin-4-yl)benzamide] | 1 nM
9 | CC(C)(O)[C@H]1CC[C@H](NC(=O)c2ccc(-c3nccc4[nH]cnc34)cc2)CC1 [Example 44, N-[trans-4-(2-hydroxypropan-2-yl)cyclohexyl]-4-(1H-imidazo[4,5-c]pyridin-4-yl)benzamide] | 4 nM
10 | O=C(NC12CCC(O)(CC1)C2)c1ccc(-c2nccc3[nH]ccc23)c(F)c1 [Example 10, 3-fluoro-N-(4-hydroxybicyclo[2.2.1]heptan-1-yl)-4-(1H-pyrrolo[3,2-c]pyridin-4-yl)benzamide] | 1 nM
11 | CC(C)(O)[C@H]1CC[C@H](NC(=O)c2ccc(-c3nccc4[nH]nnc34)cc2)CC1 [Example 45, 4-(1H-[1,2,3]triazolo[4,5-c]pyridin-4-yl)-N-[trans-4-(2-hydroxypropan-2-yl)cyclohexyl]benzamide] | 24 nM
12 | O=C(NC12CCC(O)(CC1)CC2)c1ccc(-c2nccc3[nH]ccc23)c(F)c1 [Example 6, 3-fluoro-N-(4-hydroxybicyclo[2.2.2]octan-1-yl)-4-(1H-pyrrolo[3,2-c]pyridin-4-yl)benzamide] | 1.1 nM
13 | O=C(NC12CCC(O)(CC1)CC2)c1ccc(-c2ncc(F)c3[nH]ccc23)c(F)c1 [Example 36, 3-fluoro-4-(7-fluoro-1H-pyrrolo[3,2-c]pyridin-4-yl)-N-(4-hydroxybicyclo[2.2.2]octan-1-yl)benzamide] | 0.71 nM
14 | CC(C)(O)[C@H]1CC[C@H](NC(=O)c2ccc(-c3ncc(Cl)c4[nH]ncc34)cc2)CC1 [Example 48, 4-(7-chloro-1H-pyrazolo[4,3-c]pyridin-4-yl)-N-[trans-4-(2-hydroxypropan-2-yl)cyclohexyl]benzamide] | 5.9 nM
15 | O=C(NC12CCC(O)(CC1)CC2)c1ccc(-c2ncc(F)c3[nH]ccc23)cc1 [Example 16, 4-(7-fluoro-1H-pyrrolo[3,2-c]pyridin-4-yl)-N-(4-hydroxybicyclo[2.2.2]octan-1-yl)benzamide] | 0.99 nM
16 | O=C(NC12CCC(O)(CC1)CC2)c1ccc(-c2ncc(Cl)c3[nH]ccc23)cc1 [Example 17, 4-(7-chloro-1H-pyrrolo[3,2-c]pyridin-4-yl)-N-(4-hydroxybicyclo[2.2.2]octan-1-yl)benzamide] | 0.69 nM
